According to ChEMBL document CHEMBL5380836, “Design and Structural Optimization of Methionine Adenosyltransferase 2A (MAT2A) Inhibitors with High In Vivo Potency and Oral Bioavailability” (J Med Chem, 2023):
Calls of active or inactive are those of the source. No cut-off for these calls is given here.

Experiments:
[1] = molecular target: S-adenosylmethionine synthase isoform type-2 (Homo sapiens, UniProt P31153); assay: Inhibition of recombinant MAT2A (unknown origin) expressed in baculovirus infected Sf9 insect cells using L-methionine as substrate preincubated for 15 mins followed by substrate addition measured after 60 mins by Kinase-Glo Luminescent assay
Chain of S-adenosylmethionine synthase isoform type-2 (P31153 whole entry, canonical isoform): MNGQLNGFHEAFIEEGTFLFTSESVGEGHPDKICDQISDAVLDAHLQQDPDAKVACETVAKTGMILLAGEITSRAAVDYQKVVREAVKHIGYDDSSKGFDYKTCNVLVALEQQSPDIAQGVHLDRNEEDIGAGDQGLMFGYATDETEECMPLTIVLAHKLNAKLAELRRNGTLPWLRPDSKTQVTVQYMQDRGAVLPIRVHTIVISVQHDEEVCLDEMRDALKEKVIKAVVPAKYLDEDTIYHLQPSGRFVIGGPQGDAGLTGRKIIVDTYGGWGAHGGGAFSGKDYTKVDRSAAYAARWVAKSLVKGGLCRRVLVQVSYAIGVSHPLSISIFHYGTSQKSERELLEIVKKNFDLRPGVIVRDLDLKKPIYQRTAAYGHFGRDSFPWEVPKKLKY

HCT-116 [2] = assay: Antiproliferative activity against human HCT-116 cells expressing MTAP-/- assessed as inhibition of cell proliferation incubated for 4 days by fluorescence based assay; type: functional; settings: HCT-116, 96 h
[3] = Tmax in ICR mouse at 10 mg/kg, po via gavage measured for 0.083 to 24 hrs by LC-MS analysis; type: ADME, organism-based; settings: in vivo, time 0.083-24 hrs
[4] = Half life in ICR mouse at 10 mg/kg, po via gavage measured for 0.083 to 24 hrs by LC-MS analysis; type: ADME, organism-based; settings: in vivo, time 0.083-24 hrs
[5] = Cmax in ICR mouse at 10 mg/kg, po via gavage measured for 0.083 to 24 hrs by LC-MS analysis; type: ADME, organism-based; parameters: time upper 24 hrs, dose 10 mg/kg, time lower 0.083 hrs, route po; settings: in vivo
[6] = AUC in ICR mouse at 10 mg/kg, po via gavage measured for 0.083 to 24 hrs by LC-MS analysis; type: ADME, organism-based; parameters: dose 10 mg/kg, time upper 24 hrs, time lower 0.083 hrs, route po; settings: in vivo
HCT-116 [7] = assay: Antiproliferative activity against human HCT-116 cells assessed as inhibition of cell proliferation incubated for 4 days by fluorescence based assay; type: functional; settings: HCT-116, 96 h
[8] = MRT in ICR mouse at 10 mg/kg, po via gavage measured for 0.083 to 24 hrs by LC-MS analysis; type: ADME, organism-based; settings: in vivo, time 0.083-24 hrs
HCT-116 [9] = assay: Antitumor activity against human HCT-116 cells expressing MTAP-/- xenografted in BALB/c mouse assessed as decrease in tumor volume at 50 mg/kg, po qd measured after 6 days; type: functional, organism-based; settings: time 6.0 day
HCT-116 [10] = assay: Antitumor activity against human HCT-116 cells expressing MTAP-/- xenografted in BALB/c mouse assessed as tumor regression at 50 mg/kg, po qd measured after 18 days relative to control; type: functional; settings: time 18 day
[11] = Toxicity in BALB/c mouse xenografted with human HCT-116 cells expressing MTAP-/- assessed as drug tolerance at 50 mg/kg, po qd measured for 18 days; type: organism-based; settings: in vivo, 432 h, time 18 day
[12] = Toxicity in BALB/c mouse xenografted with human HCT-116 cells expressing MTAP-/- assessed as body weight loss at 50 mg/kg, po qd measured for 18 days relative to control; type: organism-based; settings: in vivo, 432 h, time 18 day
[13] = Apparent permeability of the compound across apical to basolateral side in MDCKII-MDR1 cells at 2 uM incubated for 2.5 hrs by LC-MS/MS analysis; type: ADME, cell-based, Canis lupus familiaris; settings: dog, MDCK-MDR1
[14] = Intrinsic clearance in human liver microsomes at […] incubated for 5 to 60 mins in presence of NADPH by LC-MS analysis; type: ADME, Microsome; settings: time 5-60 min
[15] = Efflux ratio of apparent permeability from basolateral to apical side over apical to basolateral side in MDCKII-MDR1 cells at 2 uM incubated for 2.5 hrs by LC-MS/MS analysis; type: ADME, cell-based, Canis lupus familiaris; settings: dog, MDCK-MDR1
Cytochrome P450 1A2 = molecular target: T1, Cytochrome P450 1A2 (Homo sapiens, UniProt P05177); assay: Inhibition of CYP1A2 in human liver microsomes using phenacetin as substrate preincubated for 10 mins followed by substrate addition measured after 10 mins in presence of NADPH by LC-MS analysis; type: ADME, Microsome
T1 sequence (P05177 whole entry): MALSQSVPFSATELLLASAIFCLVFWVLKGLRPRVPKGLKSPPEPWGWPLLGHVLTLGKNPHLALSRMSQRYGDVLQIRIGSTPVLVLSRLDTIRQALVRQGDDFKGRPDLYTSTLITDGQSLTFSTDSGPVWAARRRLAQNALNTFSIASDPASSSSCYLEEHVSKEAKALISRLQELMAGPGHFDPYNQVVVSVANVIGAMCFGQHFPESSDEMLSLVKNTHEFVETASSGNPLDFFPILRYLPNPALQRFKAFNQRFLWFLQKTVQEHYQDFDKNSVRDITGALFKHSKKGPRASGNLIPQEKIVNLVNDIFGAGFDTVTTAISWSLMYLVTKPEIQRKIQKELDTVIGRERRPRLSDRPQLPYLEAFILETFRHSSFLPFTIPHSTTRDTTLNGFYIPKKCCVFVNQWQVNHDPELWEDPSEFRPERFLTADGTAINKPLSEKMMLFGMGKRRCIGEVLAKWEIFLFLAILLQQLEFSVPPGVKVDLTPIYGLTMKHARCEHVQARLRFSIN

Cytochrome P450 2C9 = Cytochrome P450 2C9 (Homo sapiens, UniProt P11712); assay: Inhibition of CYP2C9 in human liver microsomes using diclofenac as substrate preincubated for 10 mins followed by substrate addition measured after 10 mins in presence of NADPH by LC-MS analysis; type: ADME, Microsome
Chain of Cytochrome P450 2C9 (P11712 whole entry): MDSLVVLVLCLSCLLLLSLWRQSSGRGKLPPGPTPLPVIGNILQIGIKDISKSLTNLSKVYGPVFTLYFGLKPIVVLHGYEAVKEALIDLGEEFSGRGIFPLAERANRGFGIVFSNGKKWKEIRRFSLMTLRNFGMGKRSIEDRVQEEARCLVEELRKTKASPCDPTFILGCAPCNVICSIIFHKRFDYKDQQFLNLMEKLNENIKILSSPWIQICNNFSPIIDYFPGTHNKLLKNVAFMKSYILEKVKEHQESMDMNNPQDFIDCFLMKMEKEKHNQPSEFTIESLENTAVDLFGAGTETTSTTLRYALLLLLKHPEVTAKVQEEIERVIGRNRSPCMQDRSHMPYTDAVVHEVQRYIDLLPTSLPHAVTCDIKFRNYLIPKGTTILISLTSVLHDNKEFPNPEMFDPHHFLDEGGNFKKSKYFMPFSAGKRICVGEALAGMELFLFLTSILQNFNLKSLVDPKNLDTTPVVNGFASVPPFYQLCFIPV

Cytochrome P450 2C19 = Cytochrome P450 2C19 (Homo sapiens, UniProt P33261); assay: Inhibition of CYP2C19 in human liver microsomes using S-mephenytoin as substrate preincubated for 10 mins followed by substrate addition measured after 10 mins in presence of NADPH by LC-MS analysis; type: ADME, Microsome
Chain of Cytochrome P450 2C19 (P33261 whole entry): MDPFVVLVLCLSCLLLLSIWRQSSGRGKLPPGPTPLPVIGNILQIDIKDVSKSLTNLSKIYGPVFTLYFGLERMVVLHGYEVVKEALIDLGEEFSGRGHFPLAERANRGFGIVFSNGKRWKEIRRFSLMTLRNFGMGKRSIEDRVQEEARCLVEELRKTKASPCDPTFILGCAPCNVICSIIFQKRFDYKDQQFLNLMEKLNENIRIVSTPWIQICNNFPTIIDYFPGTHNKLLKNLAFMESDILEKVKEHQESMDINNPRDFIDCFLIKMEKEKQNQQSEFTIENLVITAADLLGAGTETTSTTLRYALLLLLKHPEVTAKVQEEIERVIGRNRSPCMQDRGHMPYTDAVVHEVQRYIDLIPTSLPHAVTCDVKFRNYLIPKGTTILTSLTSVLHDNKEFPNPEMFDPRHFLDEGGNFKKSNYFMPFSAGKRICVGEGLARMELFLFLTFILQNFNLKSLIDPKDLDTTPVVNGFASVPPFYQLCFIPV

Cytochrome P450 2D6 = Cytochrome P450 2D6 (Homo sapiens, UniProt P10635); assay: Inhibition of CYP2D6 in human liver microsomes using dextromethorphan as substrate preincubated for 10 mins followed by substrate addition measured after 10 mins in presence of NADPH by LC-MS analysis; type: ADME, Microsome
Chain of Cytochrome P450 2D6 (P10635 whole entry): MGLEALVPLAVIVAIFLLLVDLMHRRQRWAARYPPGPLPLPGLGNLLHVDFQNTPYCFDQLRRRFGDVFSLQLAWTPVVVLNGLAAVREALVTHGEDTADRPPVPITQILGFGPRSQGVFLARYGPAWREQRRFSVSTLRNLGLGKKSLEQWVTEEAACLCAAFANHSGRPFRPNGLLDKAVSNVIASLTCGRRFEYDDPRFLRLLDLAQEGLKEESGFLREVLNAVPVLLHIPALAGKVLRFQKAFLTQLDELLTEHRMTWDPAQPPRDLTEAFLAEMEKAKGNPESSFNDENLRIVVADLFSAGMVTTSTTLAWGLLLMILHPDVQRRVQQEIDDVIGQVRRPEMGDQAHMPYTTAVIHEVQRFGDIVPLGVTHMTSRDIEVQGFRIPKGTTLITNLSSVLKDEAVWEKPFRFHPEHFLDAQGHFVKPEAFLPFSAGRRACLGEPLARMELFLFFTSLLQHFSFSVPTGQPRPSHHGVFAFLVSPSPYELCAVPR

Cytochrome P450 3A4 = Cytochrome P450 3A4 (Homo sapiens, UniProt P08684); assay: Inhibition of CYP3A4 in human liver microsomes using midazolam as substrate preincubated for 10 mins followed by substrate addition measured after 10 mins in presence of NADPH by LC-MS analysis; type: ADME, Microsome
Chain of Cytochrome P450 3A4 (P08684 whole entry): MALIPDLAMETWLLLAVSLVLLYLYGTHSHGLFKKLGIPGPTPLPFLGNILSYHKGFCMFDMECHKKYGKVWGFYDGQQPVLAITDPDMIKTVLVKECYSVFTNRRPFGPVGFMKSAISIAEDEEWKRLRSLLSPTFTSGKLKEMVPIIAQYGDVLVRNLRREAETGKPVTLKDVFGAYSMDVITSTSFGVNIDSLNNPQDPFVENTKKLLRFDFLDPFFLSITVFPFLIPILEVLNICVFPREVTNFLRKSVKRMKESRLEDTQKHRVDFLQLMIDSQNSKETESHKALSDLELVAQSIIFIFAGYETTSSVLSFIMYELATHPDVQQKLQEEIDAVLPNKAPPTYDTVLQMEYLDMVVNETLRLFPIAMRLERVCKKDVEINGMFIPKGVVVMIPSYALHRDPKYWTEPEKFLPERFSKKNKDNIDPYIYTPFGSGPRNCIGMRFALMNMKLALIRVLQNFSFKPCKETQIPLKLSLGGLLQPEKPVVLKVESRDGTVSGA

[16] = molecular target: UDP-glucuronosyltransferases (UGTs); assay: Inhibition of UGT (unknown origin) preincubated for 10 mins followed by substrates addition measured after 10 mins by LC-MS analysis; type: ADME, protein assay, Homo sapiens
[17] = molecular target: Voltage-gated inwardly rectifying potassium channel KCNH2 (Homo sapiens, UniProt Q12809); assay: Inhibition of hERG potassium ion channel expressed in CHO cells at -80 mV holding potential treated for 2.5 mins by Q patch-clamp method; type: toxicity, cell-based
Chain of Voltage-gated inwardly rectifying potassium channel KCNH2 (Q12809 whole entry): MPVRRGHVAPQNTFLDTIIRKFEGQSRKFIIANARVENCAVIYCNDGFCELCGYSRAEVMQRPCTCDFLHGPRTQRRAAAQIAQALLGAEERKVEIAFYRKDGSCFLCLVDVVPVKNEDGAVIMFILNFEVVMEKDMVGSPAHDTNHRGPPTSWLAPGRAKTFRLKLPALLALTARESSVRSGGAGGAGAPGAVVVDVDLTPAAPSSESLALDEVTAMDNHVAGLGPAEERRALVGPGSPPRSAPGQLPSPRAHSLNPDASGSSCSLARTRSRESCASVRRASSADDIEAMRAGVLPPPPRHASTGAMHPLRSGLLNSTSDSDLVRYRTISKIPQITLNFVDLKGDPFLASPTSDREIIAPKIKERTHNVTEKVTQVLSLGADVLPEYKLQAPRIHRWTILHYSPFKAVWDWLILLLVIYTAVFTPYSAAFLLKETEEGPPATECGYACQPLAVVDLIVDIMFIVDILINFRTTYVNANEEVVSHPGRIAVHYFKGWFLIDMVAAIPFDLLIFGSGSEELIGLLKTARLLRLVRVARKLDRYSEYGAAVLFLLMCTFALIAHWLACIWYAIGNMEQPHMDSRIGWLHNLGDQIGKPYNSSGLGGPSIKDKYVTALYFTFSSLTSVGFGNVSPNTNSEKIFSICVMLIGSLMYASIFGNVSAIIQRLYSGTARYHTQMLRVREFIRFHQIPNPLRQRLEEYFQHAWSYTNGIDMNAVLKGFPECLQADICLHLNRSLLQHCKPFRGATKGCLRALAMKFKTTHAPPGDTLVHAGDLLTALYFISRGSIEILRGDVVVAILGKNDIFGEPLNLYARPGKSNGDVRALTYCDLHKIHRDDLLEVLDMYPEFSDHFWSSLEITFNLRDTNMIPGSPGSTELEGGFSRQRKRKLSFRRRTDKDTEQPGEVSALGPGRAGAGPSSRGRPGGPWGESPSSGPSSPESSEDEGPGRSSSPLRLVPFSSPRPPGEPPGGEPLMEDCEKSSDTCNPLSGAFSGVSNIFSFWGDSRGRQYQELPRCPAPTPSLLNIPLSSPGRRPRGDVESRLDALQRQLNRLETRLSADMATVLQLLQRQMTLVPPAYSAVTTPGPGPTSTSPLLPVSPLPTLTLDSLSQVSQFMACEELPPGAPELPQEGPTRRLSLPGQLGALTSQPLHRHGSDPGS

HCT-116 [18] = assay: Antitumor activity against human HCT-116 cells expressing MTAP-/- xenografted in BALB/c mouse assessed as tumor growth inhibition at 50 mg/kg, po qd measured for 18 days relative to control; type: functional; settings: HCT-116, 432 h, time 18 day, read-out: TGI
[19] = Clearance in ICR mouse at 1 mg/kg, iv measured for 0.083 to 24 hrs by LC-MS analysis; type: ADME, organism-based; settings: in vivo, time 0.083-24 hrs
[20] = Half life in ICR mouse at 1 mg/kg, iv measured for 0.083 to 24 hrs by LC-MS analysis; type: ADME, organism-based; settings: in vivo, time 0.083-24 hrs
[21] = AUC in ICR mouse at 1 mg/kg, iv measured for 0.083 to 24 hrs by LC-MS analysis; type: ADME, organism-based; parameters: time upper 24 hrs, time lower 0.083 hrs, dose 1 mg/kg, route iv; settings: in vivo
[22] = Volume of distribution at steady state in ICR mouse at 1 mg/kg, iv measured for 0.083 to 24 hrs by LC-MS analysis; type: ADME, organism-based; settings: in vivo, time 0.083-24 hrs, read-out: Vdss
[23] = Oral bioavailability in ICR mouse at 10 mg/kg administered via gavage measured for 0.083 to 24 hrs by LC-MS analysis; type: ADME, organism-based; settings: in vivo, time 0.083-24 hrs

Structure (SMILES)	IC50 [1] [nM]	IC50 (HCT-116 [2]) [nM]	further results
CCOc1ccc2c(=O)n(-c3ccc4nc5n(c4c3)CCN(C)C5)c(=O)n(-c3ccc(OC(F)F)cc3)c2n1	26	75	Tmax [3]: 40.2 min; half-life [4]: 179 min; Cmax [5]: 6730 ng/mL; AUC [6]: 41200 ng·h/mL; IC50 (HCT-116 [7]): > 10 µM; MRT [8]: 4.71 h; Activity (HCT-116 [9]): Active; Activity (HCT-116 [10]): -52%; Activity [11]: Non-Toxic; Activity [12]: 12%; Papp A→B at 2.5 h, 2 µM [13]: 2.9 ×10⁻⁶ cm/s; CLint [14]: 20.1 µL/min/mg; efflux ratio at 2.5 h, 2 µM [15]: 8; IC50 (Cytochrome P450 1A2): > 50 µM; IC50 (Cytochrome P450 2C9): 39.2 µM; IC50 (Cytochrome P450 2C19): 29 µM; IC50 (Cytochrome P450 2D6): > 50 µM; IC50 (Cytochrome P450 3A4): 36.9 µM; IC50 [16]: > 50 µM; IC50 [17]: > 50 µM
CN1CCn2c(nc3ccc(-c4cc5cnc(NCC(F)(F)F)nc5n(-c5ccc(OC(F)F)cc5)c4=O)cc32)C1	34	166	–
CCOc1ncc2cc(-c3ccc4nc5n(c4c3)CCN(C(C)=O)C5)c(=O)n(-c3ccc(OC(F)F)cc3)c2n1	52	118	–
CCOc1ncc2nc(-c3ccc4nn(C)cc4c3)c(=O)n(-c3ccc(OC(F)F)cc3)c2n1	39	387	–
CCOc1ncc2cc(-c3ccc4nc5n(c4c3)CCN(C)C5)c(=O)n(-c3ccc(OC)nc3)c2n1	132	792	–
CCOc1ncc2cc(-c3cc4c5c(c3)ncn5CCO4)c(=O)n(-c3ccc(OC(F)F)cc3)c2n1	72	447	–
CN1CCn2c(nc3ccc(-c4cc5cnc(C6CC6)nc5n(-c5ccc(OC(F)F)cc5)c4=O)cc32)C1	14	34	Tmax [3]: 30 min; half-life [4]: 240 min; Cmax [5]: 1740 ng/mL; AUC [6]: 11400 ng·h/mL
CCOc1ccc2c(=O)n(-c3ccc4nn5c(c4c3)CN(C)CC5)c(=O)n(-c3ccc(OC(F)F)cc3)c2n1	28	82	IC50 (HCT-116 [7]): > 10 µM
CN1CCn2c(nc3ccc(-c4cc5cnc(OCC(F)F)nc5n(-c5ccc(OC(F)F)cc5)c4=O)cc32)C1	37	159	–
COc1ccc(-c2c(Nc3ccccn3)[nH]c3c(C4=CCCCC4)c(-c4ccccc4)nn3c2=O)cc1	–	244	inhibition in vivo at 50 mg/kg (HCT-116 [18]): 34%
CCOc1ncc2cc(-c3ccc4nc5n(c4c3)CCN(CC3COC3)C5)c(=O)n(-c3ccc(OC(F)F)cc3)c2n1	23	67	–
CCOc1ncc2cc(-c3ccc4nn5c(c4c3)CN(C)CC5)c(=O)n(-c3ccc(OC(F)F)cc3)c2n1	20	56	–
CCOc1ncc2cc(-c3ccc4nc5n(c4c3)CCN(C(C)C)C5)c(=O)n(-c3ccc(OC(F)F)cc3)c2n1	17	53	–
CC(C)Oc1ncc2cc(-c3ccc4nc5n(c4c3)CCN(C)C5)c(=O)n(-c3ccc(OC(F)F)cc3)c2n1	27	84	–
CCOc1ncc2c(n1)n(-c1ccc(OC(F)F)cc1)c(=O)n2Cc1ccc2nn(C)cc2c1	> 1000	> 10000	–
CCOc1ncc2cc(-c3ccc4nn5c(c4c3)C(=O)N(C)CC5)c(=O)n(-c3ccc(OC(F)F)cc3)c2n1	23	80	–
CCOc1ncc2cc(-c3ccc4nc5n(c4c3)CCN(CC#N)C5)c(=O)n(-c3ccc(OC(F)F)cc3)c2n1	20	56	–
CCOc1ncc2cc(-c3ccc4nc5n(c4c3)CCN(C)C5)c(=O)n(-c3ccc(Cl)cc3)c2n1	51	119	–
CCNc1ncc2cc(-c3ccc4nc5n(c4c3)CCN(C)C5)c(=O)n(-c3ccc(OC(F)F)cc3)c2n1	14	42	Tmax [3]: 19.8 min; half-life [4]: 174 min; Cmax [5]: 1050 ng/mL; AUC [6]: 3200 ng·h/mL
CCOc1ccc2cc(-c3ccc4nn(C)cc4c3)c(=O)n(-c3ccc(OC(F)F)cc3)c2c1	34	355	–
CCOc1ccc2cc(-c3ccc4c(c3)C3(CC3)CO4)c(=O)n(-c3ccc(OC(F)F)cc3)c2c1	63	315	–
Cn1cc2cc(-n3cc4cnc(NCC(F)(F)F)nc4c(-c4ccc(Cl)cc4)c3=O)ccc2n1	32	145	–
CN1CCn2c(nc3ccc(-c4cc5cnc(N6CCCC6)nc5n(-c5ccc(OC(F)F)cc5)c4=O)cc32)C1	> 1000	> 10000	–
CCOc1ncc2cc(-c3ccc4nc5n(c4c3)CCN(C)C5)c(=O)n(-c3ccc(OC(F)F)cc3)c2n1	18	52	clearance [19]: 17.1 mL/min/kg; half-life [20]: 144 min; AUC [21]: 990 ng·h/mL; Vd [22]: 2.18 L/kg; Tmax [3]: 49.8 min; half-life [4]: 198 min; Cmax [5]: 2300 ng/mL; AUC [6]: 11500 ng·h/mL; bioavailability [23]: 116%
CCOc1ncc2cc(-c3ccc4nc5n(c4c3)CCN(CCOC)C5)c(=O)n(-c3ccc(OC(F)F)cc3)c2n1	17	50	–
CCOc1ncc2cc(-c3ccc4ncn5c4c3OCC5)c(=O)n(-c3ccc(OC(F)F)cc3)c2n1	> 1000	> 10000	–
CN1CCn2c(nc3ccc(-c4cc5cnc(N6CCC6)nc5n(-c5ccc(OC(F)F)cc5)c4=O)cc32)C1	324	6120	–
CCOc1ncc2cc(-c3ccc4c(c3)nc3n4CCN(C)C3)c(=O)n(-c3ccc(OC(F)F)cc3)c2n1	394	3110	–
CCOc1ncc2cc(-c3ccc4c(c3)OCC3(CCN(C)CC3)O4)c(=O)n(-c3ccc(OC(F)F)cc3)c2n1	> 1000	> 10000	–
COc1ncc2cc(-c3ccc4nc5n(c4c3)CCN(C)C5)c(=O)n(-c3ccc(OC(F)F)cc3)c2n1	64	484	–
